These results are taken from US20240182893A1, “INHIBITION OF FGR REDUCES FIBROSIS” (UNIVERSITY OF PITTSBURGH-OF THE COMMONWEALTH SYSTEM OF …, priority 2021, published 2024).

The test system of test [1] is target C57BL/6 stromal cells. In words: Non-contact transwell coculture: irradiated senescent tdTOMp16+ stromal cells on top, target cells at bottom, RT-qPCR of profibrotic genes. The class given is cell-based, mouse. As for the experimental part:
It was also confirmed that the RIS cells showing upregulation of Fgr RNA by heat map also had higher RNA levels. Validation of RNA for p16 and p21, as well as Fgr was carried out (FIG. 5A-FIG. 5C). To establish that irradiated tdTOMp16+ senescent cells induce profibrotic genes, a C57BL/6 target cell line, and a noncontact transwell co-culture system was used (FIG. 6A). Irradiated red cells were compared to 0 Gy or irradiated non-red cells. Sorted red cells, were placed on the top of each well and C57/B6 mouse stromal target cells were plated at the bottom well and observed for two weeks. There was significant induction of collagen 1al and collagen 3 in C57/B6 target cells by RIS red cells (FIG. 6B-FIG. 6C). […] (FIG. 6D).
Transwell experiment: Control and Fgr knockdown stable cell lines were irradiated with 5 Gy by Cesium Gamma Cell dose rate 300 cGy/min. Ten days after radiation, red senescent and non-red non-senescent cells were sorted using MoFlo Astrios Cell Sorter (Beckman Coulter). Senescent and non-senescent cells were plated on the top well of the transwell with a […] pore size (Coster, Cat. No. 3412) and the target C57BL/6 cell line for the evaluation of fibrotic markers was plated at the bottom. 2 weeks later total RNA was extracted from the target C57BL/6 cells and evaluated by qPCR for Collagen 3 (Mm01254476_m1) and TGF-beta (Mm01191861_m1). GAPDH (Mm99999915_g1) was used as the loading control.
Transwell coculture experiments. A Transwell system (0.4-μm pore size, polyester membrane; Corning, Kennebunk, ME) was used (Ejaz A et al. Stem Cells. 2019, 37, 791-802). C57BL/6 mouse bone marrow stromal cells or mouse primary tail fibroblasts were cultured in the bottom surface of a 9-cm^2 culture dishes. Above the adherent layer in the transwell, tdTOMp16+ bone marrow stromal cells (non-irradiated, irradiated non-sorted, irradiated, and sorted senescent tdTOM+, or irradiated non-senescent tdTOM− cells) were cultured in the upper transwell. […] For the stable Fgr shRNA cells, non-target control and Fgr shRNA knockdown cell lines were also irradiated and sorted following the same protocol. Briefly, tdTOMp16+ cells were irradiated and after 10 days of radiation, the cells were FACS sorted for tdTOM+ and tdTOM− cells and 3×10^5 cells added on the top wells in each case. Coculture was maintained for another 10 days. The target cells from the bottom well were lysed, and total RNA was isolated using TRizol (Sigma) reagent following the manufacturer's protocol. cDNA was synthesized, and expression of profibrotic genes (TGF-β1, CTGF, collagens (Col1, Col3), and α-SMA were analyzed using gene-specific TaqMan primers employing quantitative real-time polymerase chain reaction (PCR).
In vitro transwell experiments. Senescent bone marrow derived irradiated (5 Gy, subconfluent cultures held for 10 days) tdTOMp16+ cells were sorted for TOM+ (red) color and placed in Transwell cultures. Two types of transwell experiments were carried out. For induction of fibrosis biomarkers in target cells, senescent cells were placed into the top chamber separated from target mesenchymal stem cells (MSCs) derived from the adherent layer of long term C57Bl/6 mouse bone marrow cultures in the bottom chamber by a 0.4-micron pore size membrane. […] The migration of gfp+ cells through the filter to the bottom compartment was measured by imaging the bottom wells and counting gfp+ cells relative to numbers of senescent TOM+ (red) cells. […]
(In qPCR the cycle at which signal appears reflects the starting amount.)

Test [2] addresses T1, Fgr (Mus musculus, UniProt P14234).
T1 construct: endogenous in cells; host or cells: tdTOMp16+ mouse bone marrow stromal (MSC) cell line, irradiated, senescent tdTOM+ cells
Put plainly: Western blot of Fgr phosphorylation in tdTOMp16+ cells (phospho-Fgr antibody). In kind it is cell-based. The protocol: FIG. 7A-FIG. 7B show shRNA knockdown of Fgr in vitro and inhibition of activation of Fgr by TL02-59. FIG. 7A) The tdTOMp16+ cell line was transfected with three individual Fgr shRNAs. […] (Phospho-FGR (Tyr412) Rabbit Polyclonal Antibody. Company: Thermo Fisher Scientific, Catalogue #PA5-64583).
FIG. 23A-FIG. 23C. […] FIG. 23A—Irradiated tdTOMp16+ non-senescent (tdTOM−) and senescent (tdTOM+) cells were cultured on the top well of the transwell, and the target C57BL/6 stromal cells were cultured on the bottom well. Cells were treated with either vehicle or 10 nM Fgr inhibitor TL02-59 and after 10 days, target cells were harvested for RNA, and RT-qPCR was performed for TGF-β and Collagen 3 genes. FIG. 23B—Inhibition of Fgr phosphorylation by TL02-59 was confirmed by western blot from the vehicle and TL02-59-treated cell lysates of irradiated senescent (tdTOM+) cells (n=3, *P=<0.05; **P=0.01). […] NS nonsignificant), P values were calculated by t test.
The role of Fgr in fibrosis induction was next investigated by two methods of inhibition: first, pharmacologic inhibition of Fgr was applied by adding the Fgr-specific small-molecule inhibitor TL02-59 (FIG. 23A, FIG. 23B). […] Using the transwell non-contact coculture system, the effect of a specific inhibitor of Fgr TL02-59 (10 nM) on the induction of biomarkers of fibrosis in target cells by tdTOM+ senescent cells was measured for 10 days. […]
(In western blotting, separated proteins are transferred to a membrane and probed.)

Test [3] concerns tdTOMp16+ red senescent cells. Put plainly: Chemokine array of media from sorted senescent tdTOMp16+ cells. The class given is cell-based, mouse. Conditions: TL02-59 10 nM, 72 hours, FIG. 50. The protocol: FIG. 50. […] Using chemokine array relative amounts of chemokines secreted in the media was measured. (n=2, *, p<0.05, p values were calculated using unpaired t-test).
For test [4], the target named is Fgr (Homo sapiens, UniProt P09769). Particulars: cited from earlier work.
The target in another test is Src-family kinase Fgr (Homo sapiens, UniProt P09769). Conditions: cited from earlier work.
The mark [5] stands for this setting: 10 nM TL02-59, 10 days, FIG. 23.

Entries after “also recorded” stand apart in the source; their conditions may differ.

Fgr (Homo sapiens, UniProt P09769), sequence (P09769 whole entry, species assumed): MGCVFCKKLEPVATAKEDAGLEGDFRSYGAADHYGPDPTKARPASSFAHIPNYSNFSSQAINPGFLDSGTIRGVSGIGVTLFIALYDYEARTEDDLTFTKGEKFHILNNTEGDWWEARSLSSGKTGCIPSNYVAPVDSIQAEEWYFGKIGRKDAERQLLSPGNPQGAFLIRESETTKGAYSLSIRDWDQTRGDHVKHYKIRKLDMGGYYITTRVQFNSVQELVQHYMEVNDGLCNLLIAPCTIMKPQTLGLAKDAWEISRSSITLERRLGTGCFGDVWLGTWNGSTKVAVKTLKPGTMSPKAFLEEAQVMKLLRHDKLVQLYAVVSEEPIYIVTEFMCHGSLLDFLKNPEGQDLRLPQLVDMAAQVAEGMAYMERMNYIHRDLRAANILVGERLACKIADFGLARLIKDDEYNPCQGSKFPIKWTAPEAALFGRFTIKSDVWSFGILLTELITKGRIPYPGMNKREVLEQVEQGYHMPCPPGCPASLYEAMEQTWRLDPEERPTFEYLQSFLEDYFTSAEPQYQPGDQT
T1 sequence (P14234 whole entry): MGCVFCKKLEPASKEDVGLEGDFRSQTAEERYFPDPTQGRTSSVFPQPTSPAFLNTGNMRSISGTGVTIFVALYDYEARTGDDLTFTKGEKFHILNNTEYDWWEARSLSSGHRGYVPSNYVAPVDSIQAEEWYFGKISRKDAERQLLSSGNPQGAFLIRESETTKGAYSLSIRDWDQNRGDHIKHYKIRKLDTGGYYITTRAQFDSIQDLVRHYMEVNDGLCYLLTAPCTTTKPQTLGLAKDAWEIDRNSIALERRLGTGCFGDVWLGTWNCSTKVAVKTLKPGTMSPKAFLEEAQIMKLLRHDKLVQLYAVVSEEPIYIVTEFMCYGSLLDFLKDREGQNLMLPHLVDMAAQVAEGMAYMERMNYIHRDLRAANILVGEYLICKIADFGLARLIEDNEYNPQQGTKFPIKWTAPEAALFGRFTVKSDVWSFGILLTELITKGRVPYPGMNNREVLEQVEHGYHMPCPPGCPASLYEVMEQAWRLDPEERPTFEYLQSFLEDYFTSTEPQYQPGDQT
Src-family kinase Fgr, sequence (P09769 whole entry): as the sequence (P09769 whole entry, species assumed) above

In the case of `CCN1CCN(Cc2ccc(NC(=O)c3ccc(C)c(Oc4ncnc5cc(OC)c(OC)cc45)c3)cc2C(F)(F)F)CC1` [TL02-59], in test [1] (setting [5]), the “induction of TGF-beta in target cells by tdTOM+ senescent cells (RT-qPCR)” value is recorded as “significantly inhibited induction; also recorded: abrogates the induction of profibrotic genes” and the “induction of collagen 3 in target cells by tdTOM+ senescent cells (RT-qPCR)” value is “significantly inhibited induction; also recorded: abrogates the induction of profibrotic genes”. Moreover, the “induction of fibrosis biomarkers TGF-β and Collagen 3 in target mesenchymal stem cells” value in test [1] (TL02-59 10 nM, 10 days, FIG. 44) is reported as “blocked; also recorded: inhibits the induction”. For the same molecule, the “induction of collagen 3 in target cells by RIS red cells” value in test [1] (TL02-59 1 μm, transwell, after 2 weeks, FIG. 6D) is given as “reduced the induction of collagen 3; also recorded: blocks senescent cell induction”. In test [1] (transwell co-culture, tdTOMp16+ stromal cell line), the “induction of biomarkers of fibrosis (collagen 1a1, collagen 3, TGF-β) in target cells by RIS cells” value was “abrogates the induction of biomarkers of fibrosis; also recorded: abrogated senescent cell induction of profibrotic genes”. At Fgr [2] (0.1 μM TL02-59, tdTOMp16+ cell line, FIG. 7B), the “phosphorylation of Fgr (Tyr412)” value is on record as “Inhibition of phosphorylation of Fgr”. Moreover, the “Fgr phosphorylation in irradiated senescent (tdTOM+) cells, western blot” value at Fgr [2] (vehicle vs TL02-59 treated cell lysates, FIG. 23) is recorded as “inactivated Fgr; also recorded: inhibited”. Also, in test [3], the “secretion of senescence associated secretory chemokines (chemokine array)” value was “reduces secretion of senescence associated secretory chemokines”. The “kinases inhibited at 10 nM concentration” value at Fgr [4] (10 nM) is reported as “inhibits only Fgr”. Also, on Fgr [4], the “concentration with complete inhibition of Fgr” value was “above 10 nM”, the “concentration with partial inhibition of Fgr” value was 0.1 to 1 nM and the “selectivity for Fgr over other kinases” value is reported as “remarkably selective for Fgr; also recorded: Fgr specific in the nanomolar concentration”. Further, on Src-family kinase Fgr, the primary target kinase entry is reported as “primary target”.
